The numbers were not newly measured in patent US20150150812A1, “CONTROLLED RELEASE FORMULATIONS WITH […]” (Egalet Ltd., priority 2009, published 2015), which cites them from elsewhere.

The data set concerns postoperative patients.

As to `CN1CC[C@]23c4c5ccc(O)c4O[C@H]2[C@@H](O)C=C[C@H]3[C@H]1C5` [morphine], the “Calculated mean (SD) MEAC” value (10 postoperative patients, Dahlström et al (1982)) is recorded as 16 (9) ng/mL. Further, the “Estimated MEAC” value (postoperative patients, patient-controlled analgesia, Graves et al (1985)) is 20 to 40 ng/mL.
